Test results published in ChEMBL document CHEMBL1921758, “Indole alkaloids and quassinoids from the stems of Brucea mollis” (J Nat Prod, 2011).

Experiments:
Assay type in all cases: functional, cell-based
[1] = tested on: Bel-7402; experiment: Cytotoxicity against human Bel7402 cells by MTT assay
[2] = tested on: HCT-8; experiment: Cytotoxicity against human HCT8 cells by MTT assay
[3] = Cytotoxicity against human […] cells by MTT assay
[4] = tested on: A2780; experiment: Cytotoxicity against human A2780 cells by MTT assay
[5] = tested on: A549; experiment: Cytotoxicity against human A549 cells by MTT assay

| SMILES | IC50 [1] | IC50 [2] | IC50 [3] | IC50 [4] | IC50 [5] |
| --- | --- | --- | --- | --- | --- |
| CC1=CC(=O)[C@@H](O)[C@]2(C)[C@H]3[C@@H](O)[C@H](O)[C@H](CO)[C@@H]4[C@@H](O)C(=O)O[C@H](C[C@@H]12)[C@@]43C (relative stereo) | 4.4 µM | 3.36 µM | 3 µM | > 10 µM | > 10 µM |
| CC(C)(O)[C@@H](O)C[C@]1(O)C(=O)N([C@@H]2O[C@H](CO)[C@@H](O)[C@H](O)[C@H]2O)c2ccccc21 [BRUCEOLLINE N] | > 10 µM | > 10 µM | > 10 µM | > 10 µM | > 10 µM |
| CC(C)(O)C(=O)Cc1cn([C@@H]2O[C@H](CO)[C@@H](O)[C@H](O)[C@H]2O)c2ccccc12 [BRUCEOLLINE M] | > 10 µM | > 10 µM | > 10 µM | > 10 µM | > 10 µM |
| CC1(C)C(=O)C(=O)c2c1[nH]c1cc(O)ccc21 [BRUCEOLLINE H] | > 10 µM | > 10 µM | > 10 µM | > 10 µM | > 10 µM |
| COc1cccc2c1C(=O)c1c(O)c3c(c(O)c1C2=O)C[C@@](O)(C(=O)CO)C[C@@H]3O[C@H]1C[C@H](N)[C@H](O)[C@H](C)O1 [DOXORUBICIN] | 0.53 µM | 0.42 µM | 0.98 µM | 0.33 µM | 0.72 µM |
| CC1(C)c2[nH]c3ccccc3c2C(=O)[C@@H]1O[C@@H]1O[C@H](CO)[C@@H](O)[C@H](O)[C@H]1O [BRUCEOLLINE K] | > 10 µM | > 10 µM | > 10 µM | > 10 µM | > 10 µM |
| CC1=CC(=O)[C@@H](O)[C@]2(C)[C@H]3[C@@H](O)[C@H](O)[C@]4(C)OC[C@@]35[C@@H](C[C@@H]12)OC(=O)[C@H](O)[C@]54O [BRUCEINE D] | 3.51 µM | 5.81 µM | 3.8 µM | > 10 µM | > 10 µM |
| CC(C)(O)[C@@H](O)Cc1cn([C@@H]2O[C@H](CO)[C@@H](O)[C@H](O)[C@H]2O)c2ccccc12 [BRUCEOLLINE F] | > 10 µM | > 10 µM | > 10 µM | > 10 µM | > 10 µM |
| CC1(C)c2[nH]c3cc(O)ccc3c2C(=O)[C@@H]1O [BRUCEOLLINE I] | > 10 µM | > 10 µM | > 10 µM | > 10 µM | > 10 µM |
| CC1=CC(=O)[C@@H](O)[C@]2(C)[C@H]3[C@@H](O)[C@H](O)[C@H](CO[C@@H]4O[C@H](CO)[C@@H](O)[C@H](O)[C@H]4O)[C@@H]4[C@@H](O)C(=O)O[C@H](C[C@@H]12)[C@@]43C [YADANZIOLIDE U] | > 10 µM | > 10 µM | > 10 µM | > 10 µM | > 10 µM |
| CC1=CC(=O)O[C@H]1[C@@]1(C)C[C@H]2OC(=O)[C@H](O)[C@H]3[C@@H](CO)[C@@H](O)[C@H](O)[C@H]1[C@]32C (relative stereo) | > 10 µM | > 10 µM | > 10 µM | > 10 µM | > 10 µM |
| CC1(C)C(=O)C(=O)c2c1[nH]c1ccccc21 [BRUCEOLLINE E] | > 10 µM | > 10 µM | > 10 µM | > 10 µM | > 10 µM |
| CC1=CC(=O)[C@@H](O)[C@@]2(C)[C@H]1[C@@H](O)[C@H]1OC(=O)[C@H](O)[C@]3(O)[C@]14CO[C@]3(CO)[C@@H](O)[C@H](O)[C@H]24 [YADANZIOLIDE B] | 4.24 µM | 3.33 µM | 4.85 µM | > 10 µM | 3.8 µM |
| CC(C)[C@@H](O)C(=O)c1c[nH]c2ccccc12 [BRUCEOLLINE L] | > 10 µM | > 10 µM | > 10 µM | > 10 µM | > 10 µM |
| CC1(C)c2[nH]c3ccccc3c2C(=O)[C@@H]1O [BRUCEOLLINE J] | > 10 µM | > 10 µM | > 10 µM | > 10 µM | > 10 µM |
